Converted amounts (≈) assume the structure as drawn. “Also recorded” adds a separate entry of the source.
Experiments:
[1] = Liver microsomal stability, human; type: in vitro ADME; conditions: for microsomal stability Human(%): human liver microsomal
Description: (§1) The aqueous solubility, liver microsomal stabilities and PK profiles was measure for Compounds 1d, 2j, and 2l in the in vivo CLP-induced mouse models.

[2] = Liver microsomal stability, mouse; type: in vitro ADME; conditions: for microsomal stability Mouse(%): mouse liver microsomal
Description: as §1

[3] = test system: IL-6 secreted from Raw 264.7 cells; experiment: Western blot analysis of IL-6 secretion; type: cell-based; conditions: pretreatment with compounds
Experimental: From the results shown in Table 6, Compounds 2j (68%) and 2l (60%) had better TNF-α release inhibitory effect than that of Compound 1d (43%). Therefore, the inhibitory effect of IL-6 release secretion was analyzed with the Western blot analysis in order to additionally confirm the inflammation inhibitory effect of Compounds 2j and 2l.
(§2) Western Blot Analysis Protein sampling was done in 4° C. Cells were harvested in RIPA lysis buffer containing protease inhibitor cocktail and phosphatase inhibitor.
(§3) After centrifugation at 15000 rpm for 20 minutes, supernatant was transferred to new 1.5 mL tube. Protein concentration was normalized with a Micro BCA protein assay kit. The protein samples were analyzed with the Western blot procedure. Protein was transferred into PVDF membrane after SDS-PAGE. Membrane was blocked after transfer step, with 2% BSA in TBST for 1 hour in room temperature.
(§4) Primary antibodies were treated overnight at 4° C. or 1 hour in room temperature, followed by washing with TBST.
(§5) HRP-conjugated secondary antibodies were treated for 1 hour in room temperature. Antibodies were diluted in 1% BSA in TBST solution, with the concentration indicated in antibody manufacturer's protocol. After washing with TBST, the membrane was developed by Amersham ECL prime solution. Chemiluminescent signal was measured by ChemiDoc MP imaging system, and relative quantification were followed using ImageLab 4.0 software. The quantification result was processed with GraphPad Prism 5.0 software.

PK profiles in mouse = type: in vivo; conditions: ip injection
Description: as §1

[4] = test system: MAPK including p38, JNK, and ERK; experiment: Western blot of MAPK phosphorylation; type: cell-based; conditions: Raw264.7 cells
Experimental: as §2, §3, §4, §5

IL-6 = IL-6 level in CLP-induced mice (ELISA); conditions: CLP mouse model, daily dose of 10 mg/kg for 9 days starting 1 hour before CLP induction
Experimental: After 4 hours, media were transferred to new transparent 96-well plate and diluted with 1% BSA in PBS solution. ELISA assay was performed following the manufacturer's protocol.
ELISA plates (Costar, Cambridge, Mass.) were coated overnight with anti-IL-6 monoclonal antibody (eBioscience, San Diego, Calif.) at 4° C. Wells were blocked with PBS containing 1% bovine serum albumin (Sigma-Aldrich, St. Louis, Mo.) for 1 hour at room temperature (RT) and incubated with serum overnight at 4° C.
After washing, plates were incubated with biotinylated anti-IL-6 antibody (eBioscience) for 1 hour at RT. Streptavidin-conjugated horseradish peroxidase (eBioscience) is attached for 1 hour at RT. Then, Color was developed using TMB solution (eBioscience),
Absorbance was read at 450 nm with a Multiskan Ascent (Labsystems, Kennett Square, Pa.). All experiments were independently performed at least three times.

[5] = test system: TNF-α secretion in Raw264.7 cell; experiment: ELISA of secreted TNF-α; type: cell-based; conditions: Mus musculus, LPS 100 ng/mL, compounds 10 μM, read-out: TNF-α Inhibition Rate (%)
Experimental: Thus, in order to additionally confirm the inflammation inhibitory effects of Compounds 2f to 2l, the inhibition rate of TNF-α secretion was quantitatively measured by ELISA.
Cells were treated with each Compound 1d, or 2f to 2l, and LPS for 24 hours, followed by ELISA for TNF-α present in the culture solution.
In order to measure the amount of secreted TNF-α, Raw264.7 cell was seeded in transparent 96-well plate and maintained for 1 day. Media was aspirated after 1 day and replaced to serum-free DMEM with 1% (v/v) antibiotic-antimycotic solution. LPS and compounds were treated in a final concentration of 100 ng/mL and 10 μM.
Standard curve was plotted by the dose-dependent treatment of the control TNF-α protein provided with the ELISA kit. Blank value was measured by adding solutions without TNF-α substrate.
The TNF-α secretion inhibition rate of Compounds 1d, and 2f to 2l was confirmed, when compared with control groups.

[6] = test system: NO release in Raw264.7 cells; experiment: Griess assay, inhibition of nitric oxide release; type: cell-based; conditions: 100 ng/mL LPS and compounds 24 hours, compared with control group
Experimental: Thus, the Griess assay was used to measure nitric oxide secretion for inflammation inhibition in Raw264.7 cells.
Raw 264.7 macrophage cell was cultured in Dulbecco Modified Eagle Medium (DMEM) with 10% (v/v) fetal bovine serum (FBS) and 1% (v/v) antibiotic-anti mycotic solution.
Cell was maintained in a 100 mm cell culture dish under cell culture conditions (5% CO2 incubator at 37° C. with humidified atmosphere).
Griess assay reagent was generated prior to the assay with the following contents listed below: N-(1-naphthyl) ethylenediamine dihydrochloride, 0.1% (m/v); sulfanilamide, 1% (m/v); phosphoric acid (85%); 5% (v/v) in deionized water.
Raw 264.7 cell was seeded in transparent 96-well plate and maintained for 1 day. Media was aspirated, and each well was washed with serum free DMEM for twice. Each well was refilled with serum-free DMEM.
Then 100 ng/mL LPS and compounds were treated afterward and cultured for 24 hours. After the incubation, the supernatant culture media was transferred to new 96-well plate and mixed with 50 μL of Griess assay reagent.
Media-reagent mixture was incubated at room temperature for several minutes. Absorbance was read at 548 nm. Four wells each were used for the control experiment, LPS and DMSO (without any compounds) treated well, and DMSO-only treated well. Blank values were measured.
Blank values were measured by mixing 50 μL of Griess assay reagent with […] and 1% antibiotic-antimycotic containing DMEM.
As for the compounds in which the double bond of the tetrahydropyridazine ring in Compound 1d is moved or eliminated, the inhibition rate of NO release was measured in the same manner as in Test Example 2.
The inhibition rate of NO release for Compounds 2a to 2o prepared in Example 2 was tested in order to confirm the anti-inflammatory effect for the above compounds.

NF-κB p65 = NF-κB p65 immunofluorescence (migration to the nucleus); type: cell-based; conditions: Raw264.7 cells, 500 ng/mL LPS
Description: It is concluded that Compounds 1d, 2j, and 2l controlled and regulated the inflammatory signaling pathways in activated macrophages.

CLP-induced mice = experiment: Survival rate in CLP-induced mouse model; conditions: for survival rate / survival rate, in words: CLP mice; for survival rate: intraperitoneally, daily dose of 10 mg/kg for 21 days, start 1 hour before induction; for survival rate, in words: 10 mg/kg ip daily for 21 days, compared with vehicle and 1d groups
Description: Briefly, the CLP mouse model is established by performing a surgical procedure to the cecum, which is the organ where the resident enteric microbiome exists. Ligating the cecum and puncturing the end with a needle causes endotoxemia by inducing polymicrobial contamination in the abdominal cavity toward the circulatory system.

Raw 264.7 cell = experiment: WST (water-soluble tetrazolium) analysis, relative cell viability; type: cell-based; conditions: 100 ng/mL LPS and compounds 24 hours
Experimental: Relative cell viability of Compound 2a to 2o prepared in Examples 2 was measured by WST (water-soluble tetrazolium) analysis.
Raw 264.7 cell was seeded in transparent 96-well plate and maintained for 1 day.
Media was aspirated, and each well was washed with serum free DMEM for twice. Each well was refilled with serum-free DMEM. Then, 100 ng/mL LPS and compounds were treated afterward and cultured for 24 hours. After the incubation, the supernatant culture media was transferred to new 96-well plate.
Immediately after transferring media, cell-seeded wells were refilled with 100 μL of 10% FBS and 1% antibiotic-antimycotic containing DMEM. Then, 10 μL of Ez-cytox WST assay reagent was used to treat each well, following the manufacturer's protocol.
After incubating for 20 min in a 5% CO2 incubator at 37° C. with humidified atmosphere, absorbance was read at 450 nm.
Blank values were obtained from the well only treated with 10% FBS and 1% antibiotic-antimycotic containing DMEM.

HMGB1 = experiment: Immunofluorescence of cellular localization of HMGB1 upon LPS treatment; type: cell-based; conditions: Raw264.7 cell, 20 μM compounds 1 hour prior to 500 ng/mL LPS for 2 hours
Experimental: From the results shown in Table 6, Compounds 2j (68%) and 2l (60%) had better TNF-α release inhibitory effect than that of Compound 1d (43%). Therefore, it was analyzed with the immunofluorescence whether Compounds 2j and 2l may inhibit the cellular localization of HMGB1 upon LPS treatment.
Raw264.7 cell was seeded in “Nunc Lab-Tek II” chambered coverglass and maintained for 1 day.
Then, 20 μM of compounds were treated 1 hour prior to 500 ng/mL LPS treatment for 2 hours.
After aspirating the media and washing with PBS, 200 μl of 4% paraformaldehyde solution was treated and incubated at room temperature for 20 minutes. Then, 4% paraformaldehyde solution was aspirated and the sample was washed with PBS three times.
For the permeabilization to enable antibody binding, 200 μL of methanol was treated and incubated at −20° C. for 20 minutes. Methanol was then removed and the sample was washed with PBS three times.
Sample was blocked with 2% BSA in PBS solution at room temperature for 1 hour. Then, 2% BSA in PBS solution was removed and primary antibody containing 1% BSA in PBS was treated at 4° C. overnight. Antibody concentration was optimized according to the manufacturer's protocol. Primary antibody solution was removed and the sample was washed with PBS three times. Secondary antibody containing 1% BSA in PBS solution was treated at room temperature for 1 hour.
The secondary antibody used was goat anti rabbit TRITC labeled antibody from Abcam.
After 1 hour, antibody solution was aspirated and the sample was washed with PBS three times. For nucleus staining, Hoechst 33342 was diluted in PBS, and each well was treated and incubated at room temperature for 1 hour. Hoechst 33342 was then removed and the chamber was filled with PBS, continued for imaging using DeltaVision microscope.

Aqueous solubility = type: physicochemical
Description: as §1

Question: What does the source list for CC1(C)Oc2cc(O)ccc2C2C1=CCn1c(=O)n(-c3ccccc3)c(=O)n12 (centres unmarked) [Compound 1d, inflachromene]?
Answer: microsomal stability Human(%) [1]: 0.82 ± 0.29%; microsomal stability Mouse(%) [2]: 0.41 ± 0.10%; level of IL-6 secreted (western blot) [3]: significantly reduced; PK data AUC (PK profiles in mouse): 327 ± 68.7 µg·h/mL; PK data Cmax (PK profiles in mouse): 387 ± 122 µg/mL; PK data T1/2 (PK profiles in mouse): 3.87 ± 0.84 h; PK data Tmax (PK profiles in mouse): 0.14 ± 0.10 h; phosphorylation of MAPK including p38, JNK, and ERK [4]: clearly inhibited the phosphorylation of MAPK including p38, JNK, and ERK; IL-6 levels in surviving mice, compared with control group (IL-6): significantly reduced; inhibition at 10 µM [5]: 43%; NO Inhibition rate (%) [6]: 87%; migration of NF-κB to the nucleus (NF-κB p65): inhibit the migration of NF-κB to the nucleus; survival rate (CLP-induced mice): about 45%; survival rate, in words, compared with vehicle-treated group (CLP-induced mice; CLP-induced mice, ip 10 mg/kg for 9 days): significantly increased; Relative Cell Viability (%) (Raw 264.7 cell): 105%; translocation of HMGB1 from the nucleus to the cytosol (HMGB1): inhibited the translocation of HMGB1 from the nucleus to the cytosol

Question: What does the source list for CC(=O)c1ccc(-n2c(=O)n3n(c2=O)C2C(=CC3)C(C)(C)Oc3cc(O)ccc32)cc1 (centres unmarked) [Compound 2j]?
Answer: liver microsomal stability in humans, in words, compared with Compound 1d [1]: improved liver microsomal stability; microsomal stability Human(%) [1]: 30.2 ± 2.81%; liver microsomal stability in mice, in words, compared with Compound 1d [2]: improved liver microsomal stability; microsomal stability Mouse(%) [2]: 2.46 ± 1.83%; solubility in aqueous media, in words, compared with Compound 1d (Aqueous solubility): improved solubility in aqueous media; solubility (Aqueous solubility; aqueous media): 162 ± 2.12 µg/mL (≈ 387 µM); level of IL-6 secreted (western blot) [3]: superior inhibitory effect on IL-6 secretion; also recorded: improved the inhibition of IL-6 release; PK data AUC (PK profiles in mouse): 202 ± 28.1 µg·h/mL; PK data Cmax (PK profiles in mouse): 100 ± 3.72 µg/mL; PK data T1/2 (PK profiles in mouse): 3.45 ± 1.00 h; PK data Tmax (PK profiles in mouse): 0.25 ± 0.00 h; phosphorylation of MAPK including p38, JNK, and ERK [4]: clearly inhibited the phosphorylation of MAPK including p38, JNK, and ERK; inhibition at 10 µM [5]: 68%; NO Inhibition rate (%) [6]: 93%; migration of NF-κB to the nucleus (NF-κB p65): inhibit the migration of NF-κB to the nucleus; survival rate, in words (CLP-induced mice): superior effects on survival rates; survival rate (CLP-induced mice): 74%; Relative Cell Viability (%) (Raw 264.7 cell): 111%; translocation of HMGB1 from the nucleus to the cytosol (HMGB1): inhibited the translocation of HMGB1 from the nucleus to the cytosol

Question: Which “liver microsomal stability in humans, in words, compared with Compound 1d” value [1] does the source give for COc1cc(OC)cc(-n2c(=O)n3n(c2=O)C2C(=CC3)C(C)(C)Oc3cc(O)ccc32)c1 (centres unmarked) [Compound 2l] here?
Answer: The value was “improved liver microsomal stability”.

Question: And the “microsomal stability Human(%)” value [1]?
Answer: The value was 41.2 ± 4.33%.

Question: And the “liver microsomal stability in mice, in words, compared with Compound 1d” value [2]?
Answer: Its value is “improved liver microsomal stability”.

Question: And the “microsomal stability Mouse(%)” value [2]?
Answer: Its value is 20.2 ± 1.78%.

Question: And the “solubility in aqueous media, in words, compared with Compound 1d” value (Aqueous solubility)?
Answer: The value was “improved solubility in aqueous media”.

Question: What about the “level of IL-6 secreted (western blot)” value [3] of the same compound?
Answer: Its value is “superior inhibitory effect on IL-6 secretion; also recorded: improved the inhibition of IL-6 release”.

Question: What about the “PK data AUC” value (PK profiles in mouse) of the same compound?
Answer: Its value is 218 ± 51.8 µg·h/mL.

Question: What about the “PK data Cmax” value (PK profiles in mouse) of the same compound?
Answer: The value was 282 ± 87.0 µg/mL.

Question: What about the “PK data T1/2” value (PK profiles in mouse) of the same compound?
Answer: The value was 5.00 ± 0.98 h.

Question: What about the “PK data Tmax” value (PK profiles in mouse) of the same compound?
Answer: Its value is 0.14 ± 0.10 h.

Question: What about the “phosphorylation of MAPK including p38, JNK, and ERK” value [4] of the same compound?
Answer: The value was “clearly inhibited the phosphorylation of MAPK including p38, JNK, and ERK”.

Question: What about the inhibition at 10 µM [5] of the same compound?
Answer: Its inhibition at 10 µM is 60%.

Question: What about the “NO Inhibition rate (%)” value [6] of the same compound?
Answer: The value was 94%.

Question: And the “migration of NF-κB to the nucleus” value (NF-κB p65)?
Answer: Its value is “inhibit the migration of NF-κB to the nucleus”.

Question: What about the “survival rate, in words” value (CLP-induced mice) of the same compound?
Answer: Its value is “superior effects on survival rates”.

Question: And the survival rate (CLP-induced mice)?
Answer: The survival rate was 54%.

Question: What about the “Relative Cell Viability (%)” value (Raw 264.7 cell) of the same compound?
Answer: Its value is 121%.

Question: And the “translocation of HMGB1 from the nucleus to the cytosol” value (HMGB1)?
Answer: Its value is “inhibited the translocation of HMGB1 from the nucleus to the cytosol”.

Reference: US10160766B1, “Benzopyranyl tetracycle compound and pharmaceutical composition having excellent anti-inflammatory effect comprising the same” (Spark Biopharma, Inc., priority 2017, dated 2018)
